1 molecule from US11865157B2, “Compositions and methods of targeting cancer stem cells” (University of Houston System, priority 2016, dated 2024) can be followed below.

Test [1] has as its system H358 cells. Nature of the test: Magnetic-bead pull-down assay. It is filed as cell-based. Here is the method:
On-bead binding assay: 50 mg of peptoid-carrying tentagel beads or 1.3×10^6 of peptoid-carrying magnetic beads were equilibrated in 2 mL RPMI containing 5% FBS and 3% BSA (Sigma) for 1 hour by shaking. The beads can then be equilibrated with 5×10^6 of each cancer cell type listed above in 2 mL RPMI containing 5% FBS and 1% BSA at room temperature for 15-60 minutes for binding. The cell-bound beads are then pulled down with a magnet and washed with RPMI to cleanly harvest bound cells. Unbound cells were collected separately for further confirmations.
To confirm the binding specificity of PCS2 to CSCs, CSCs isolated from H358 cells and normal mesenchymal stem cells (MSCs) were exposed to PCS2-carrying beads as described in Example 3, and then separated by magnet into peptoid-bound and peptoid-unbound fractions (FIG. 19A). […] RNA from both bound and unbound fractions was harvested and analyzed by RT-qPCR to determine the relative expression of several known CSC biomarkers in each fraction was assessed, including expression of ALDH1A3 (FIG. 19B), CD133 (FIG. 19C), CD44 (FIG. 19D), and SOX2 (FIG. 19E). […]
To further evaluate this plectin-CSC connection, it was confirmed that CSCs can be isolated through cell surface plectin via a PCS2-independent approach. […] Next the mRNA levels of two known CSC biomarkers was analyzed on these cell groups by RT-QPCR, along with plectin (PLEC). […]

The target of test [2] is T1, plectin (Homo sapiens, UniProt Q15149).
T1 construct: endogenous in cells; host or cells: H358, H1693, H1975, H1993 cells
Nature of the test: Magnetic-bead binding assay with plectin antibody competition or plectin siRNA knockdown. How it is done: Unsorted H358 cells were plated on a 6-well plate and grown to 80% confluence. For each well, 9 μL of Lipofectamine RNAiMAX (Thermo Fisher) was mixed with 3 μL of 10 μM siRNA, either silencer select s10644 plectin or silencer select negative control 1 (Thermo Fisher), in serum-free RPMI and incubated for 5 minutes. The mixture was then added to the well and incubated for 1 to 4 days before testing. Magnetic binding assays were performed on harvested cells as described above for binding evaluation.
Plectin expression was directed tested on PCS2-bound cells from H358, HCC4017, H460, H1299, H2073, H1693, H1993, H1975 cells by RT-QPCR (FIG. 22A). […] To determine if PCS2 and the plectin antibody compete for binding, the magnetic-bead binding assay was repeated in the presence of the plectin antibody. […] Since previous reports have shown cells to be sufficiently stable for further assays with plectin knock-down, plectin knockdown was conducted in H358, H1693, H1975 and H1993 cells using siRNA using the magnetic-bead binding assay described above. […] From these observations, it was concluded that plectin is the cell-surface marker that PCS2 is targeting.

Numbered stars: 1 amine (or outer) side, 2 acyl side, 3 side chain; on linkers, the order of the positions; unused ones are H or OH. Square brackets hold non-standard residues; d marks the D form. Peptide text beside a SMILES is read from it. ξ: configuration not given here. Gly(N-piperonyl) = O=C(O)CNCc1ccc2c(c1)OCO2; X1 = CC(c1ccccc1)N(CC(=O)[*:2])[*:1]; Nlys = NCCCCNCC(=O)O; ξK = NCCCCC(N)C(=O)O; ξM = CSCCC(N)C(=O)O; Nme = COCCNCC(=O)O

T1 sequence (Q15149 whole entry): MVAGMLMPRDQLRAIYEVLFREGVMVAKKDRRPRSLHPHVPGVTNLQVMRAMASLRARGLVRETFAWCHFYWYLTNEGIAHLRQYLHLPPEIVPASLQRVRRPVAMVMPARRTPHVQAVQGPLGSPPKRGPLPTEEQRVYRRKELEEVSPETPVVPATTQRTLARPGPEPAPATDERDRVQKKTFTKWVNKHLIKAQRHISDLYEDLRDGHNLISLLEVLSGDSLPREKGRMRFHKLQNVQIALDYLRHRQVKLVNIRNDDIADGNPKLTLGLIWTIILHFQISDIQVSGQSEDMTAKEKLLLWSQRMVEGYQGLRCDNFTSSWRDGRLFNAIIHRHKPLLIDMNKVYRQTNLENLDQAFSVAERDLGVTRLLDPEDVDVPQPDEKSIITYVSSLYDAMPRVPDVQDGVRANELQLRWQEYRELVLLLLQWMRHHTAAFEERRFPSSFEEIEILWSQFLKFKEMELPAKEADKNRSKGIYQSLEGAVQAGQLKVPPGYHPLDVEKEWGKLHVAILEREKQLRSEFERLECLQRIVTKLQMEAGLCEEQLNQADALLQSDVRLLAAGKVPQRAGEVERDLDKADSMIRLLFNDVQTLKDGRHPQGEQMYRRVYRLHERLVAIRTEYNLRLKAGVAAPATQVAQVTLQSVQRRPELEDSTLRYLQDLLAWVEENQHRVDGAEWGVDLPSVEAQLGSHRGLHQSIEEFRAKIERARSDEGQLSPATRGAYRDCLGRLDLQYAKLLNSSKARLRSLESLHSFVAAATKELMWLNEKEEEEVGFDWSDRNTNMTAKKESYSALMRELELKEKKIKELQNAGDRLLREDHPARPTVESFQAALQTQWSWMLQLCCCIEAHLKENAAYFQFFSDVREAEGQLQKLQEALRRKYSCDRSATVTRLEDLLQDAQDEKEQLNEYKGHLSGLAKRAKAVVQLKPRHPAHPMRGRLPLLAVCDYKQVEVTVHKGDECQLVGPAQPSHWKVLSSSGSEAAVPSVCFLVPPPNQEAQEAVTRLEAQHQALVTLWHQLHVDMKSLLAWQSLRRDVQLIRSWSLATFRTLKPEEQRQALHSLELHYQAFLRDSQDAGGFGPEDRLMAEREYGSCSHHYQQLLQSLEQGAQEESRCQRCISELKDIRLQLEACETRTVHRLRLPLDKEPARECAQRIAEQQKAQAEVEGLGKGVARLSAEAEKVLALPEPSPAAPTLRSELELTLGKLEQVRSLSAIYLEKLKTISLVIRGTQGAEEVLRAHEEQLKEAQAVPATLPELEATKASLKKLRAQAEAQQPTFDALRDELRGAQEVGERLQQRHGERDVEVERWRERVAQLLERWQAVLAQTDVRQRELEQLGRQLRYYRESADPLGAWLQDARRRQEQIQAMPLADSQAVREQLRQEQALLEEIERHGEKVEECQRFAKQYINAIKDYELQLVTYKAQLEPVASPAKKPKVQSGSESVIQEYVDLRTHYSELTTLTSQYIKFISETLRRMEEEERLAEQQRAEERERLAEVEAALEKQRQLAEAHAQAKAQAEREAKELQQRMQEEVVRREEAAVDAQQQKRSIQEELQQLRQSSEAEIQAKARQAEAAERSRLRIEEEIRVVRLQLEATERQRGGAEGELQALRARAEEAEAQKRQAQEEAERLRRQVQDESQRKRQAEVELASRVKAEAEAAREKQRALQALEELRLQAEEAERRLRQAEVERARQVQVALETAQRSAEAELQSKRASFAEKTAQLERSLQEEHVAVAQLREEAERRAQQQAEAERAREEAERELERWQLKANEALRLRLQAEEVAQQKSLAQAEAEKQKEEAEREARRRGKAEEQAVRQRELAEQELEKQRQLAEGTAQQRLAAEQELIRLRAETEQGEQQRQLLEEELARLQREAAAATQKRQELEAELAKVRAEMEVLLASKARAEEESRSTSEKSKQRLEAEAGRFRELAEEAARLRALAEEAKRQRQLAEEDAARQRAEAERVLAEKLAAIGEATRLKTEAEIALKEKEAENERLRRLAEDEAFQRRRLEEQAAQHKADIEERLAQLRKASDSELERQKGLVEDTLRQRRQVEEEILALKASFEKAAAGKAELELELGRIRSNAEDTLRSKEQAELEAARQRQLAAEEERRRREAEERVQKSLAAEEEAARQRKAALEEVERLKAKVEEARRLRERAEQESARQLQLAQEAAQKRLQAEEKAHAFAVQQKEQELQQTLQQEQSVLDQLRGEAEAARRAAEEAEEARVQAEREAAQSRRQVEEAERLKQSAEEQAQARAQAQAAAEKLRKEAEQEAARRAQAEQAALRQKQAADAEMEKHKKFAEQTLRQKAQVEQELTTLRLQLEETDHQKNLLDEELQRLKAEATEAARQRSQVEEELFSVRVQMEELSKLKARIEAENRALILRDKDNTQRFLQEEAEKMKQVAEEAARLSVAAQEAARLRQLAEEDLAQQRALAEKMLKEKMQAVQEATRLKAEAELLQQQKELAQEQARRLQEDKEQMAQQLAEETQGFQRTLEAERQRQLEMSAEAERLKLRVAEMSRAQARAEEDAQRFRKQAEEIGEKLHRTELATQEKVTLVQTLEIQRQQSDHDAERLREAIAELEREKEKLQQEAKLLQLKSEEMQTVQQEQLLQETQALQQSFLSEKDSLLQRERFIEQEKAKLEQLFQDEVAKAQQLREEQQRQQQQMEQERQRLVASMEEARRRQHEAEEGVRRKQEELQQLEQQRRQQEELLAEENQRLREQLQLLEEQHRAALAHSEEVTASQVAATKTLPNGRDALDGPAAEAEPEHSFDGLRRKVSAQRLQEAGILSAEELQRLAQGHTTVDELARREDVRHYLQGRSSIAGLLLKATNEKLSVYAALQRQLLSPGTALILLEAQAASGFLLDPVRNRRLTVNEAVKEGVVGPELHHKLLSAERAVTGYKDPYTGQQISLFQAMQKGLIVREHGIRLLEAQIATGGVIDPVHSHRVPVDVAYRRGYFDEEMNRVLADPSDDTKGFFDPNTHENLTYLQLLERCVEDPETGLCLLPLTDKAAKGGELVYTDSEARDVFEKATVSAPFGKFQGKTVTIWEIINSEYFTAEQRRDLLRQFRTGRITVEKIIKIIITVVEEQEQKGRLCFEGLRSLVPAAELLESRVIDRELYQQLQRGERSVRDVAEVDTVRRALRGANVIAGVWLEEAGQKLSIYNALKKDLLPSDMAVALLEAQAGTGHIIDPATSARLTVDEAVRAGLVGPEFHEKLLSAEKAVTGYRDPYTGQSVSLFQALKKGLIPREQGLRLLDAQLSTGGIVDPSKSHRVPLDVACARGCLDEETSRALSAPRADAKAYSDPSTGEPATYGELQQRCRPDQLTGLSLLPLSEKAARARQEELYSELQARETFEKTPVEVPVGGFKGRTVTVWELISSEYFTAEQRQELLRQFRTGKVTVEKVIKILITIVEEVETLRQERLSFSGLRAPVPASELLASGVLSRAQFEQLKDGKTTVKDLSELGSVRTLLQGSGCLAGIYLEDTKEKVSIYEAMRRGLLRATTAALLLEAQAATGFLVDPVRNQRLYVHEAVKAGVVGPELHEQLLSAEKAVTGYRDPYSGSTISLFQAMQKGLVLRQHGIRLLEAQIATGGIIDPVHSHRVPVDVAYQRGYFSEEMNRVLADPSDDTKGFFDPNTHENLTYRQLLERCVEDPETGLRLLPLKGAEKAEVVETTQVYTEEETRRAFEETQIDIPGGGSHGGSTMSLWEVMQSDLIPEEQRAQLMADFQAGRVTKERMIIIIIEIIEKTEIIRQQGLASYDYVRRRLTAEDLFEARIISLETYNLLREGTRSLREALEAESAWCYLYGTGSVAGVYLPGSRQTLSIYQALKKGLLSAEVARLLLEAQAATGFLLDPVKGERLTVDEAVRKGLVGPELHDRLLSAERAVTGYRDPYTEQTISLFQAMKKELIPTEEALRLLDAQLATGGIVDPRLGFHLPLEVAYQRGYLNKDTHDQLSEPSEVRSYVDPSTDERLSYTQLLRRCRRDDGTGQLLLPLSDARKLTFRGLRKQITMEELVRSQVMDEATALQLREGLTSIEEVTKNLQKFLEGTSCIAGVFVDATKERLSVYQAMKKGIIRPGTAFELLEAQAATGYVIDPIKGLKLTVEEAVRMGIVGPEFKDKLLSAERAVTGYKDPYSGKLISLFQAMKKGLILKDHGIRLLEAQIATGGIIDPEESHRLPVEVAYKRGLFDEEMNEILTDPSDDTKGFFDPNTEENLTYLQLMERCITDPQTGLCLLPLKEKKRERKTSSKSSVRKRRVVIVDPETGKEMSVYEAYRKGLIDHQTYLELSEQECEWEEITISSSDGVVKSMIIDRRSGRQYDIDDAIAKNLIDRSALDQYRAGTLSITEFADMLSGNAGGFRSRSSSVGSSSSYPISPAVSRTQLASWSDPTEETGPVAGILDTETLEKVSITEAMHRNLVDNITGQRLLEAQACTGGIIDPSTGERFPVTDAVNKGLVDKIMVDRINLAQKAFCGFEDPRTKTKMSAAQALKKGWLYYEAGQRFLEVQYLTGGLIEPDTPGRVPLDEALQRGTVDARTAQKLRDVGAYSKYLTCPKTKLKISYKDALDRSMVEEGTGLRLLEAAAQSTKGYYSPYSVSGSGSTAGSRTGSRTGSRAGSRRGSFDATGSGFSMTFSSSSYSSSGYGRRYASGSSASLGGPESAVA

In the case of `COCCNCC(=O)N(CCCCN)CC(=O)N(CC(=O)N(CC(=O)N(CCCCN)CC(=O)NC(CCCCN)C(=O)N[C@H](CCCCN)C(=O)NC(CCSC)C(N)=O)C(C)c1ccccc1)Cc1ccc2c(c1)OCO2` (stereo partly shown) [PCS2] (H-[Nme][Nlys][Gly(N-piperonyl)][X1][Nlys][ξK][dK][ξM]-NH2), the “binding of PCS2 beads to CSCs from H358 vs normal MSCs” value in test [1] (bound vs unbound fractions) is on record as “bound significantly higher on CSCs from H358 than normal MSCs”. Besides, the “cells isolated (pull-down) from H358” value in test [1] (coated magnetic beads) was 28-38%. In test [2] (H358, H1693, H1975 and H1993 cells), the “bound cells after plectin siRNA knockdown vs control siRNA” value is on record as “dramatic decrease”. For the same molecule, the “cells bound to PCS2-magnetic-beads in the presence of plectin antibody” value in test [2] (all cell lines tested) is “fewer cells bound”.
